Data taken from patent publication US11850220B2 (Augusta University Research Institute, Inc., priority 2020, dated 2023).

Tests used:
[1] = tested on: hot plate; experiment: hot plate technique (central analgesic); type: in vivo; settings: for Potency: Relative to indomethacin at 120 min.
[2] = tested on: animal gastric mucosa; experiment: ulcerogenic liability; type: in vivo; settings: in vivo
[3] = tested on: acetic acid-induced abdominal writhing; experiment: acetic acid-induced abdominal writhing technique (peripheral analgesic); type: in vivo; settings: for Potency: Relative to indomethacin; for % Inhibition/protection / Writing reflex ± SEM: in vivo; on % Inhibition/protection: test concentration or dose not given here; on Writing reflex ± SEM: test concentration or dose not given here
[4] = tested on: carrageenan-induced paw edema; experiment: carrageenan-induced paw edema technique (anti-inflammatory); type: in vivo; settings: for Observed (1/property): 1/(% inhibition of edema thickness at 3 h effect); on Observed (1/property): test concentration or dose not given here; on Potency (% Inhibition relative to indomethacin at 3 h effect): test concentration or dose not given here
Text: Anti-inflammatory properties of the ibuprofen-amino acid conjugate (5a-j) and ibuprofen-amino acid-4-aminophenol conjugates 7a-j were studied by the standard carrageenan-induced paw edema technique (Naumov, R. N. et al., Bioorg. Med. Chem. Lett. 2015, 25, 2314-2320; Tiwari, A. D. et al., Org. Biomol. Chem. 2014, 12, 7238-7249).

[5] = molecular target: COX-1 (Homo sapiens, UniProt P23219); experiment: COX-1/2 bio-assay: COX-1; type: biochemical; settings: read-out: IC50 ± SD, COX-1
Text: (§1) Cyclooxygenases (COX) are the key enzymes capable of the conversion of arachidonic acid to prostaglandins.

[6] = molecular target: T1, COX-2 (Homo sapiens, UniProt P35354); experiment: COX-1/2 bio-assay: COX-2; type: biochemical; settings: for IC50: read-out: IC50 ± SD, COX-2; for SI(COX-2/COX-1): selectivity index COX-2/COX-1
T1 sequence (P35354 18-604): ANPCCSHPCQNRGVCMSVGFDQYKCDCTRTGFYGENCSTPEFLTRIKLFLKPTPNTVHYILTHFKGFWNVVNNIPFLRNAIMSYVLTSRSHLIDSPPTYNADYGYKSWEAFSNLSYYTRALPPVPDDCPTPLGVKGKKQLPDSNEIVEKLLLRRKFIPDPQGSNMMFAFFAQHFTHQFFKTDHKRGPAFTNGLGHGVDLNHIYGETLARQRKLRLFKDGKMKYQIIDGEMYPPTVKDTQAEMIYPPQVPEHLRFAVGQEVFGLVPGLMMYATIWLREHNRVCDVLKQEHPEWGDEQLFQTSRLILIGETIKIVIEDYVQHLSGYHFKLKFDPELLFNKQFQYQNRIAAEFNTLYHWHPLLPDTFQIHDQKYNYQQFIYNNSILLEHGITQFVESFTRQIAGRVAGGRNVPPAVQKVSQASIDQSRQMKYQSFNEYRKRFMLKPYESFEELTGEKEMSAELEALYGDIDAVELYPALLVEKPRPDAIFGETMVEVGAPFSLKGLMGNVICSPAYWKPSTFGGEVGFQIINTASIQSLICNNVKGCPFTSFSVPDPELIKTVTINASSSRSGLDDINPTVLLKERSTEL
Text: as §1

[7] = % inhibition of edema thickness at 3 h effect, Table 7
[8] = anti-inflammatory property (% inhibition of edema at 3 h), Table 8

Sequence of COX-1 (P23219 24-599): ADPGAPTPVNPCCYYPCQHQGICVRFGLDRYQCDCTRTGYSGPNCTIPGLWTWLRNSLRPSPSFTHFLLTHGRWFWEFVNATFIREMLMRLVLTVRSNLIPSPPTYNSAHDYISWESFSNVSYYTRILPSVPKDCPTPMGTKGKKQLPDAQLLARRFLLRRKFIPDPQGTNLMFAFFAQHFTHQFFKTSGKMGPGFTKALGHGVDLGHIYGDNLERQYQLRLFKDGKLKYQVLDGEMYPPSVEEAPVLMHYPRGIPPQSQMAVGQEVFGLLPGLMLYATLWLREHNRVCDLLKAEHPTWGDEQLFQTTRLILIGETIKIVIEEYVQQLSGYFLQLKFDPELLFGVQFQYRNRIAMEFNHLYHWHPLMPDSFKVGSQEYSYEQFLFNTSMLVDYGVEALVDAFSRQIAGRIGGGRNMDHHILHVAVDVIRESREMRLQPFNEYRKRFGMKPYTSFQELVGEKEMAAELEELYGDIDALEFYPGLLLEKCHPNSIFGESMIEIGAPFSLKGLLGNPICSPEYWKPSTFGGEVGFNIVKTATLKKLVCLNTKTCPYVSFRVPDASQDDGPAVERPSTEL

SMILES	% protection ([1]; After 30 min.)	Latency period ± SEM ([1]; After 30 min.) [s]	% protection ([1]; After 60 min.)	Latency period ± SEM ([1]; After 60 min.) [s]	% protection ([1]; After 90 min.)	Latency period ± SEM ([1]; After 90 min.) [s]	% protection ([1]; After 120 min.)	Latency period ± SEM ([1]; After 120 min.) [s]	Potency [1]	Potency [3]	% Inhibition/protection [3] [%]	Writing reflex ± SEM [3]	Observed (1/property) ([4]; Table 7)	% inhibition of edema ([4]; 1 h) [%]	Mean edema thickness ([4]; 1 h) [mm]	% inhibition of edema ([4]; 2 h) [%]	Mean edema thickness ([4]; 2 h) [mm]	% inhibition of edema ([4]; 3 h) [%]	Mean edema thickness ([4]; 3 h) [mm]	% inhibition of edema ([4]; 4 h) [%]	also measured
CC(C)Cc1ccc(C(C)C(=O)N[C@@H](CCC(N)=O)C(=O)O)cc1 (stereo partly drawn) [Compound 5j, (2-(4-Isobutylphenyl)propanoyl)-L-glutamine]	(22.3) %	2.96 ± 0.02	(25.1) %	2.79 ± 0.03	(45.5) %	3.20 ± 0.04	(46.1) %	3.20 ± 0.03	81	3	1.6	95.7 ± 2.4	0.01389	25	0.92 ± 0.05	45	0.83 ± 0.04	72	0.36 ± 0.02	8	melting point: 67.4 °C; % Incidence of ulcer divided by 10 [2]: 0; Average of ulcer number [2]: 0; Average severity of ulcer [2]: 0; Number of animals with ulcer [2]: 0; Ulcer index [2]: 0; Mean edema thickness ([4]; 4 h): 1.15 ± 0.06 mm; % inhibition of edema ([4]; 24 h): 47%; Mean edema thickness ([4]; 24 h): 0.10 ± 0.03 mm; Observed property [4, 7]: 72%; Observed property [4, 8]: 72%; Potency (% Inhibition relative to indomethacin at 3 h effect) [4]: 90%
CC(C)Cc1ccc(C(C)C(=O)NCC(=O)Nc2ccc(O)cc2)cc1 (stereo not shown) [Compound 7a, N-(2-((4-Hydroxyphenyl)amino)-2-oxoethyl)-2-(4-isobutylphenyl)propanamide]	(97.1) %	4.77 ± 0.07	(94.6) %	4.34 ± 0.04	(86.4) %	4.10 ± 0.02	(81.7) %	3.98 ± 0.11	144	139	76.4	23.0 ± 0.9	0.01316	41	0.73 ± 0.04	65	0.53 ± 0.03	76	0.31 ± 0.02	83	melting point: 175.9 °C; IC50 [5]: 2.7 ± 0.13 µM; IC50 [6]: 78.3 ± 5.54 µM; SI(COX-2/COX-1) [6]: 29.0; % Incidence of ulcer divided by 10 [2]: 0; Average of ulcer number [2]: 0; Average severity of ulcer [2]: 0; Number of animals with ulcer [2]: 0; Ulcer index [2]: 0; Mean edema thickness ([4]; 4 h): 0.21 ± 0.02 mm; % inhibition of edema ([4]; 24 h): 42%; Mean edema thickness ([4]; 24 h): 0.11 ± 0.03 mm; Observed property [4, 7]: 76%; Observed property [4, 8]: 76%; Potency (% Inhibition relative to indomethacin at 3 h effect) [4]: 95%
CC(C)Cc1ccc(C(C)C(=O)N[C@@H](Cc2ccccc2)C(=O)Nc2ccc(O)cc2)cc1 (stereo partly drawn) [Compound 7e, (2S)-N-(4-Hydroxyphenyl)-2-(2-(4-isobutylphenyl)propanamido)-3-phenylpropanamide]	(78.1) %	4.31 ± 0.04	(104.9) %	4.57 ± 0.03	(136.4) %	5.20 ± 0.07	(144.3) %	5.35 ± 0.03	255	134	73.6	25.7 ± 1.0	0.01333	38	0.76 ± 0.05	69	0.47 ± 0.03	75	0.32 ± 0.01	77	melting point: 168.7 °C; IC50 [5]: 13.2 ± 0.65 µM; IC50 [6]: 69.8 ± 4.93 µM; SI(COX-2/COX-1) [6]: 5.3; % Incidence of ulcer divided by 10 [2]: 0; Average of ulcer number [2]: 0; Average severity of ulcer [2]: 0; Number of animals with ulcer [2]: 0; Ulcer index [2]: 0; Mean edema thickness ([4]; 4 h): 0.29 ± 0.03 mm; % inhibition of edema ([4]; 24 h): 11%; Mean edema thickness ([4]; 24 h): 0.17 ± 0.03 mm; Observed property [4, 7]: 75%; Observed property [4, 8]: 75%; Potency (% Inhibition relative to indomethacin at 3 h effect) [4]: 94%
CSCC[C@H](NC(=O)C(C)c1ccc(CC(C)C)cc1)C(=O)Nc1ccc(O)cc1 (stereo partly drawn) [Compound 7i, (2S)-N-(4-Hydroxyphenyl)-2-(2-(4-isobutylphenyl)propanamido)-4-(methylthio)butanamide]	(86.4) %	4.51 ± 0.07	(90.1) %	4.24 ± 0.05	(97.7) %	4.35 ± 0.02	(121.5) %	4.85 ± 0.04	215	128	70.4	28.8 ± 1.0	0.01786	34	0.81 ± 0.04	48	0.79 ± 0.04	56	0.57 ± 0.02	49	melting point: 190.8 °C; Mean edema thickness ([4]; 4 h): 0.64 ± 0.03 mm; % inhibition of edema ([4]; 24 h): 5%; Mean edema thickness ([4]; 24 h): 0.18 ± 0.02 mm; Observed property [4, 7]: 56%; Observed property [4, 8]: 56%; Potency (% Inhibition relative to indomethacin at 3 h effect) [4]: 70%
CC(C)Cc1ccc(C(C)C(=O)N[C@@H](CCC(N)=O)C(=O)Nc2ccc(O)cc2)cc1 (stereo partly drawn) [Compound 7j, (2S)—N1-(4-Hydroxyphenyl)-2-(2-(4-isobutylphenyl)propanamido)pentanediamide]	(60.7) %	3.89 ± 0.03	(64.6) %	3.67 ± 0.02	(74.5) %	3.84 ± 0.15	(124.7) %	4.92 ± 0.07	220	34	18.8	79.0 ± 1.8	0.01282	55	0.55 ± 0.04	71	0.44 ± 0.02	78	0.28 ± 0.01	47	IC50 [5]: 8.29 ± 0.41 µM; IC50 [6]: 116 ± 8.23 µM; SI(COX-2/COX-1) [6]: 14.0; % Incidence of ulcer divided by 10 [2]: 0; Average of ulcer number [2]: 0; Average severity of ulcer [2]: 0; Number of animals with ulcer [2]: 0; Ulcer index [2]: 0; Mean edema thickness ([4]; 4 h): 0.66 ± 0.03 mm; % inhibition of edema ([4]; 24 h): 32%; Mean edema thickness ([4]; 24 h): 0.13 ± 0.03 mm; Observed property [4, 7]: 78%; Observed property [4, 8]: 78%; Potency (% Inhibition relative to indomethacin at 3 h effect) [4]: 98%
